Values quoted from earlier work in publication PMC4791286, “Puquitinib mesylate, an inhibitor of phosphatidylinositol 3-kinase p110δ, for treating relapsed or refractory non-Hodgkin's lymphoma” (Oncotarget, 2015).

Key:
[1] = tested on: advanced solid tumors and lymphoma; set-up: method as in PMID 22357447; conditions: cited from earlier work
[2] = tested on: advanced solid tumors; conditions: human, in vivo; cited from earlier work

| SMILES | AST elevations, Grade 2 [1] [n] | AST elevations, Grade 3 [1] [n] | Grade 3 AST abnormalities [2] |
| --- | --- | --- | --- |
| COc1ccc(-c2ccc3ncc4c(c3c2)n(-c2ccc(N3CCNCC3)c(C(F)(F)F)c2)c(=O)n4C)cn1 [BGT226] | 9 | 3 | – |
| C=CCN(/C=C1/C(=O)O[C@H](COC)[C@@]2(C)C1=C(O)C(=O)C1=C2[C@H](OC(C)=O)C[C@]2(C)C(=O)CC[C@@H]12)CC=C [PX866] | – | – | 2 of 84 patients |
